Assay results taken from US20250042905A1, “DIHYDROPYRROLO[3,4-C]PYRAZOLE DERIVATIVES AND THEIR USE IN DIAGNOSIS” (AC IMMUNE SA, priority 2021, published 2025).
Where two headings read alike, the source gives them in different places.

Target: T1, PD brain-derived alpha-synuclein aggregates (Homo sapiens, UniProt P37840)
T1 construct: PD brain-derived alpha-synuclein aggregates were spotted onto microarray slides; from tissue; host or cells: human Parkinson's disease patient brain
Test: Micro-radiobinding competition assay for the determination of binding affinity
Conditions: for inhibition at 0.1 µM: read-out: Competition at 100 nM (%); for inhibition at 1 µM: read-out: Competition at 1 μM (%); for Ki: concentration range 0.05 nM to 2 μM, nonlinear regression, one site specific binding model
Procedure: Micro-Radiobinding Competition Assay for the Determination of Binding Affinity
PD brain-derived alpha-synuclein aggregates were spotted onto microarray slides. The slides were incubated with tritiated reference alpha-synuclein ligand at 20 nM or 30 nM and the example compounds (non-radiolabelled) at 1 μM and 100 nM. In some cases, the non-radiolabelled example compounds were further assessed for a range of different concentrations, varying from 0.05 nM to 2 μM. After incubation, slides were washed and scanned by a real-time autoradiography system (BeaQuant, ai4R). Quantification of the signal was performed by using the Beamage image analysis software (ai4R). Non-specific signal was determined with an excess of non-radiolabelled reference alpha-synuclein ligand (2 μM) and specific binding was calculated by subtracting the non-specific signal from the total signal. Competition was calculated as percent, where 0% was defined as the specific binding in the presence of vehicle and 100% as the values obtained in the presence of excess of the non-radiolabelled reference alpha-synuclein ligand. Ki values were calculated in GraphPad Prism7 by applying a nonlinear regression curve fit using a one site, specific binding model. All measurements were performed with at least two technical replicates.
Table 4: Assessment of binding affinity by micro-radiobinding competition assay on human PD brain-derived alpha-synuclein aggregates.

[1] = non-radiolabelled example compound at 100 nM, competition with tritiated reference alpha-synuclein ligand (20 nM or 30 nM), 100% = excess non-radiolabelled reference ligand
[2] = non-radiolabelled example compound at 1 μM, competition with tritiated reference alpha-synuclein ligand (20 nM or 30 nM), 100% = excess non-radiolabelled reference ligand

Row | SMILES | inhibition at 0.1 µM [1] [%] | inhibition at 1 µM [2] [%] | inhibition at 0.1 µM [%] | inhibition at 1 µM [%] | Ki [nM]
1 | O=C1c2cn(-c3cnc(N4CC[C@@H](F)C4)cn3)nc2CN1c1cccnc1 [Example 1, (R)-2-(5-(3-fluoropyrrolidin-1-yl)pyrazin-2-yl)-5-(pyridin-3-yl)-5,6-dihydropyrrolo[3,4-c]pyrazol-4(2H)-one] | 89 | 95 | – | – | –
2 | O=C1c2cn(-c3cnc(N4CC[C@H](F)C4)cn3)nc2CN1c1cccnc1 [Example 2, (S)-2-(5-(3-fluoropyrrolidin-1-yl)pyrazin-2-yl)-5-(pyridin-3-yl)-5,6-dihydropyrrolo[3,4-c]pyrazol-4(2H)-one] | – | – | 74 | 98 | –
3 | O=C1c2cn(-c3cnc(N4CCCCC(F)C4)cn3)nc2CN1c1cccnc1 (stereo not drawn) [Example 5, 2-(5-(3-fluoroazepan-1-yl)pyrazin-2-yl)-5-(pyridin-3-yl)-5,6-dihydropyrrolo[3,4-c]pyrazol-4(2H)-one] | 39 | 68 | – | – | –
4 | COc1cncc(N2Cc3nn(-c4cnc(N5CC[C@@H](F)C5)cn4)cc3C2=O)c1 [Example 7, (R)-2-(5-(3-fluoropyrrolidin-1-yl)pyrazin-2-yl)-5-(5-methoxypyridin-3-yl)-5,6-dihydropyrrolo[3,4-c]pyrazol-4(2H)-one] | – | – | 48 | 69 | –
5 | Cn1cc(N2Cc3nn(-c4cnc(N5CCCCC(F)C5)cn4)cc3C2=O)cn1 (stereo not drawn) [Example 8, 2-(5-(3-fluoroazepan-1-yl)pyrazin-2-yl)-5-(1-methyl-1H-pyrazol-4-yl)-5,6-dihydropyrrolo[3,4-c]pyrazol-4(2H)-one] | 45 | 78 | – | – | 33
6 | O=C1c2cn(-c3cnc(N4CC[C@@H](F)C4)cn3)nc2CN1c1cncs1 [Example 9, (R)-2-(5-(3-fluoropyrrolidin-1-yl)pyrazin-2-yl)-5-(thiazol-5-yl)-5,6-dihydropyrrolo[3,4-c]pyrazol-4(2H)-one] | – | – | 106 | – | 10
7 | COc1cncc(N2Cc3nn(-c4cnc(N5CC[C@H](F)C5)cn4)cc3C2=O)c1 [Example 10, (S)-2-(5-(3-fluoropyrrolidin-1-yl)pyrazin-2-yl)-5-(5-methoxypyridin-3-yl)-5,6-dihydropyrrolo[3,4-c]pyrazol-4(2H)-one] | – | – | 59 | 82 | –
8 | COc1cncc(N2Cc3nn(-c4cnc(N5CC(F)C5)cn4)cc3C2=O)c1 [Example 11, 2-(5-(3-fluoroazetidin-1-yl)pyrazin-2-yl)-5-(5-methoxypyridin-3-yl)-5,6-dihydropyrrolo[3,4-c]pyrazol-4(2H)-one] | – | – | 41 | 69 | –
9 | O=C1c2cn(-c3cnc(N4CC[C@H](F)C4)cn3)nc2CN1c1cncs1 [Example 12, (S)-2-(5-(3-fluoropyrrolidin-1-yl)pyrazin-2-yl)-5-(thiazol-5-yl)-5,6-dihydropyrrolo[3,4-c]pyrazol-4(2H)-one] | – | – | 50 | – | –
10 | O=C1c2cn(-c3cnc(N4CCCC(F)CC4)cn3)nc2CN1c1cccnc1 (stereo not drawn) [Example 15, 2-(5-(4-fluoroazepan-1-yl)pyrazin-2-yl)-5-(pyridin-3-yl)-5,6-dihydropyrrolo[3,4-c]pyrazol-4(2H)-one] | 39 | 67 | – | – | –
11 | Cc1ccc(N2Cc3nn(-c4cnc(N5CC[C@@H](F)C5)cn4)cc3C2=O)cn1 [Example 17, (R)-2-(5-(3-fluoropyrrolidin-1-yl)pyrazin-2-yl)-5-(6-methylpyridin-3-yl)-5,6-dihydropyrrolo[3,4-c]pyrazol-4(2H)-one] | 46 | 91 | – | – | –
12 | Cc1ccc(N2Cc3nn(-c4cnc(N5CC[C@H](F)C5)cn4)cc3C2=O)cn1 [Example 18, (S)-2-(5-(3-fluoropyrrolidin-1-yl)pyrazin-2-yl)-5-(6-methylpyridin-3-yl)-5,6-dihydropyrrolo[3,4-c]pyrazol-4(2H)-one] | 38 | 82 | – | – | –
13 | Cc1ccc(N2Cc3nn(-c4cnc(N5CC(F)C5)cn4)cc3C2=O)cn1 [Example 19, 2-(5-(3-fluoroazetidin-1-yl)pyrazin-2-yl)-5-(6-methylpyridin-3-yl)-5,6-dihydropyrrolo[3,4-c]pyrazol-4(2H)-one] | 44 | 74 | – | – | –
14 | O=C1c2cn(-c3ccc(N4CC[C@@H](F)C4)nn3)nc2CN1c1cccnc1 [Example 20, (R)-2-(6-(3-fluoropyrrolidin-1-yl)pyridazin-3-yl)-5-(pyridin-3-yl)-5,6-dihydropyrrolo[3,4-c]pyrazol-4(2H)-one] | 38 | 74 | – | – | 422
15 | Cn1cc(N2Cc3nn(-c4ccc(N5CC[C@@H](F)C5)nn4)cc3C2=O)cn1 [Example 21, (R)-2-(6-(3-fluoropyrrolidin-1-yl)pyridazin-3-yl)-5-(1-methyl-1H-pyrazol-4-yl)-5,6-dihydropyrrolo[3,4-c]pyrazol-4(2H)-one] | 65 | 86 | – | – | –
16 | O=C1c2cn(-c3ccc(N4CC[C@@H](F)C4)nn3)nc2CN1c1cncs1 [Example 22, (R)-2-(6-(3-fluoropyrrolidin-1-yl)pyridazin-3-yl)-5-(thiazol-5-yl)-5,6-dihydropyrrolo[3,4-c]pyrazol-4(2H)-one] | 30 | – | – | – | –
17 | COc1cncc(N2Cc3nn(-c4ccc(N5CC[C@@H](F)C5)nn4)cc3C2=O)c1 [Example 23, (R)-2-(6-(3-fluoropyrrolidin-1-yl)pyridazin-3-yl)-5-(5-methoxypyridin-3-yl)-5,6-dihydropyrrolo[3,4-c]pyrazol-4(2H)-one] | 65 | 76 | – | – | 182
18 | O=C1c2cn(-c3ccc(N4CC[C@H](F)C4)nn3)nc2CN1c1cccnc1 [Example 24, (S)-2-(6-(3-fluoropyrrolidin-1-yl)pyridazin-3-yl)-5-(pyridin-3-yl)-5,6-dihydropyrrolo[3,4-c]pyrazol-4(2H)-one] | 30 | 77 | – | – | 236
19 | O=C1c2cn(-c3ccc(N4CC[C@H](F)C4)nn3)nc2CN1c1cncs1 [Example 25, (S)-2-(6-(3-fluoropyrrolidin-1-yl)pyridazin-3-yl)-5-(thiazol-5-yl)-5,6-dihydropyrrolo[3,4-c]pyrazol-4(2H)-one] | 17 | 73 | – | – | 222
20 | Cn1cc(N2Cc3nn(-c4ccc(N5CC[C@H](F)C5)nn4)cc3C2=O)cn1 [Example 26, (S)-2-(6-(3-fluoropyrrolidin-1-yl)pyridazin-3-yl)-5-(1-methyl-1H-pyrazol-4-yl)-5,6-dihydropyrrolo[3,4-c]pyrazol-4(2H)-one] | 8 | 76 | – | – | –
21 | COc1cncc(N2Cc3nn(-c4ccc(N5CC[C@H](F)C5)nn4)cc3C2=O)c1 [Example 27, (S)-2-(6-(3-fluoropyrrolidin-1-yl)pyridazin-3-yl)-5-(5-methoxypyridin-3-yl)-5,6-dihydropyrrolo[3,4-c]pyrazol-4(2H)-one] | 50 | 57 | – | – | –
22 | O=C1c2cn(-c3ccc(N4CCCC(F)CC4)nn3)nc2CN1c1cccnc1 (stereo not drawn) [Example 28, 2-(6-(4-fluoroazepan-1-yl)pyridazin-3-yl)-5-(pyridin-3-yl)-5,6-dihydropyrrolo[3,4-c]pyrazol-4(2H)-one] | 17 | 51 | – | – | –
23 | Cc1ccc(N2Cc3nn(-c4ccc(N5CC[C@@H](F)C5)nn4)cc3C2=O)cn1 [Example 29, (R)-2-(6-(3-fluoropyrrolidin-1-yl)pyridazin-3-yl)-5-(6-methylpyridin-3-yl)-5,6-dihydropyrrolo[3,4-c]pyrazol-4(2H)-one] | 15 | 42 | – | – | –
24 | Cc1ccc(N2Cc3nn(-c4ccc(N5CC[C@H](F)C5)nn4)cc3C2=O)cn1 [Example 30, (S)-2-(6-(3-fluoropyrrolidin-1-yl)pyridazin-3-yl)-5-(6-methylpyridin-3-yl)-5,6-dihydropyrrolo[3,4-c]pyrazol-4(2H)-one] | 4 | 39 | – | – | –
25 | O=C1c2cn(-c3ccc(N4CC[C@@H](F)C4)nn3)nc2CN1c1ccns1 [Example 31, (R)-2-(6-(3-fluoropyrrolidin-1-yl)pyridazin-3-yl)-5-(isothiazol-5-yl)-5,6-dihydropyrrolo[3,4-c]pyrazol-4(2H)-one] | 71 | 86 | – | – | –
26 | O=C1c2cn(-c3ccc(N4CC[C@H](F)C4)nn3)nc2CN1c1ccns1 [Example 32, (S)-2-(6-(3-fluoropyrrolidin-1-yl)pyridazin-3-yl)-5-(isothiazol-5-yl)-5,6-dihydropyrrolo[3,4-c]pyrazol-4(2H)-one] | 61 | 77 | – | – | –
27 | O=C1c2cn(-c3ccc(N4CCCCC(F)C4)nn3)nc2CN1c1cccnc1 (stereo not drawn) [Example 33, 2-(6-(3-fluoroazepan-1-yl)pyridazin-3-yl)-5-(pyridin-3-yl)-5,6-dihydropyrrolo[3,4-c]pyrazol-4(2H)-one] | 6 | 35 | – | – | –
